Columns and labels:
enzyme MraY = enzyme MraY (Escherichia coli, UniProt P0A6W3); conditions: statement in words
bacteria = assay: Antibacterial activity; type: cell-based; conditions: statement in words

Sequence of enzyme MraY (P0A6W3 whole entry): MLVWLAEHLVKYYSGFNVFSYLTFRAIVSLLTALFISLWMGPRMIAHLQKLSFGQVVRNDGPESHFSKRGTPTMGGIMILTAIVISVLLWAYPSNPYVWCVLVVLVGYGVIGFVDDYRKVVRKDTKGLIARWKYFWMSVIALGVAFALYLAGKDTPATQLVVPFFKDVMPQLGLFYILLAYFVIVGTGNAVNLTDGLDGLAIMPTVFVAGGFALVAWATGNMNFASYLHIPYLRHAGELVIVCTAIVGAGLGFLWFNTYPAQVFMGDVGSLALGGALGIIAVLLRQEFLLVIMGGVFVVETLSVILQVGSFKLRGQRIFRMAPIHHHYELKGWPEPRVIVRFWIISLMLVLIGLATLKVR

With CN1C[C@H](O)[C@@H](C(=O)O)N(C)C(=O)[C@@H]1[C@H](O[C@@H]1O[C@H](CN)[C@@H](O)[C@H]1O)[C@H]1O[C@@H](n2ccc(=O)[nH]c2=O)[C@H](O)[C@@H]1O [caprazol] the “inhibitory activity against enzyme MraY” value (enzyme MraY) was “inhibitory activity against enzyme MraY” and the antibacterial activity (bacteria) was “no antibacterial activity”.

From patent publication US8710198B2, “Caprazene as a novel compound and derivatives thereof, and caprazol as a novel compound and derivatives thereof” (Meiji Seika Pharma Co., Ltd., priority 2003, dated 2014)
